Assay results taken from US20240217968A1, “PHARMACEUTICAL COMPOUND” (DUKE STREET BIO LIMITED, priority 2021, published 2024).

Each molecule was assayed against T1, recombinant human Flag-tagged PARP7 (amino acids 456-657) (Homo sapiens, UniProt Q7Z3E1) (assay: PARP7 biochemical DELFIA assay (auto-MARylation)). Conditions: DELFIA readout, IC50 class.
T1 construct: recombinant human Flag-tagged PARP7 (amino acids 456-657)
T1 sequence (Q7Z3E1 456-657): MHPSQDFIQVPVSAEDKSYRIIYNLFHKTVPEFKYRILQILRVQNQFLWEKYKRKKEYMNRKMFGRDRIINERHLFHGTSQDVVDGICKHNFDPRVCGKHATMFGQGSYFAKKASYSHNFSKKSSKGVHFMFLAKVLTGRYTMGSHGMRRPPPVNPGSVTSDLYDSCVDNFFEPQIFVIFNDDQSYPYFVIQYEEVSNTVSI
Outline: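 Flag-PARP7 (456-657), 12.5-37.5 nM stock, captured on anti-FLAG wells, preincubated 30 min with compound, then auto-MARylated with biotin-NAD+ (15 μM stock) in HEPES pH 7.5/NaCl/DTT/BSA/Tween for 2-3 h at room temperature. NAD+ quench; Eu-streptavidin DELFIA read, Ex337/Em620 nm.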

Row | IC50 [µM] | SMILES
1 | ≤ 0.1 | CC(CCOCC(=O)N1CCN(c2ncc(Cl)cn2)CC1)n1nc(C(F)(F)F)c2c(=O)[nH]ncc21 (centres unmarked) [Compound 453]
2 | 0.1 to 1 | N#Cc1ccc(N2CCN(C(=O)c3cccc(CN4CCCc5c4cn[nH]c5=O)c3)CC2)nc1 [Compound 7]
3 | ≤ 0.1 | CC(COCCC(=O)N1CCN(c2ncc(F)cn2)CC1)n1cc(C(F)(F)F)c2c(=O)[nH]ncc21 (single isomer, unassigned) [Compound 469]
4 | ≤ 0.1 | CC(COCCC(=O)N1CCN(c2ccc(OC(F)(F)F)cn2)CC1)n1nc(C(F)(F)F)c2c(=O)[nH]ncc21 (single isomer, unassigned) [Compound 254]
5 | ≤ 0.1 | Cc1c(C)n(CCOCCC(=O)N2CCN(c3ncc(C(F)(F)F)cn3)CC2)c2cn[nH]c(=O)c12 [Compound 230]
6 | ≤ 0.1 | O=C(CCOCCc1ccc(F)c2c(=O)[nH]ncc12)N1CCN(c2ncc(C(F)(F)F)cn2)CC1 [Compound 158]
7 | ≤ 0.1 | O=C(CCOCCn1cc(C(F)F)c2c(=O)[nH]ncc21)N1CCN(c2ccc(C(F)(F)F)cn2)CC1 [Compound 200]
8 | 1 to 10 | O=C(Cn1nc(C(F)(F)F)c2c(=O)[nH]ncc21)N1CCC(C(=O)N2CCN(c3ncc(C(F)(F)F)cn3)CC2)C1 (centres unmarked) [Compound 442]
9 | ≤ 0.1 | O=C(CCOCCc1cccc2c(=O)[nH]ncc12)N1CCN(c2nc3cc(Cl)ccc3o2)CC1 [Compound 172]
10 | ≤ 0.1 | CC(COCCC(=O)N1CCN(c2cc(F)c(F)cn2)CC1)n1nc(C(F)(F)F)c2c(=O)[nH]ncc21 (single isomer, unassigned) [Compound 419]
11 | 0.1 to 1 | O=C1NCCc2c(CCOCCC(=O)N3CCN(c4ncc(C(F)(F)F)cn4)CC3)cccc21 [Compound 23]
12 | ≤ 0.1 | CC(COCC(=O)NC1CCN(c2ncc(C(F)(F)F)cn2)CC1)n1nc(C(F)(F)F)c2c(=O)[nH]ncc21 (single isomer, unassigned) [Compound 480, 2-(2-(4-oxo-3-(trifluoromethyl)-4,5-dihydro-1H-pyrazolo[3,4-d]pyridazin-1-yl)propoxy)-N-(1-(5-(trifluoromethyl)pyrimidin-2-yl)piperidin-4-yl) acetamide]
13 | 1 to 10 | CC(COCCC(=O)N1CCN(c2ccc(C#N)cn2)CC1)c1cccc2c(=O)[nH]ncc12 (centres unmarked) [Compound 70]
14 | ≤ 0.1 | CC(COCCC(=O)N1CCN(c2ncc(C(F)(F)F)cn2)CC1)n1c(=O)n(C)c2c(=O)[nH]ncc21 (centres unmarked) [Compound 398]
15 | 1 to 10 | N#Cc1ccc(OC2CCN(C(=O)CCOCCc3cccc4c(=O)[nH]ncc34)C2)nc1 (centres unmarked) [Compound 116]
16 | ≤ 0.1 | Cc1nn(CCOCCC(=O)N2CCN(c3ncc(C(F)(F)F)cn3)CC2)c2[nH]c(=O)[nH]c(=O)c12 [Compound 402]
17 | ≤ 0.1 | CC1(C)CN(c2ncc(C(F)(F)F)cn2)CCN1C(=O)CCOCCn1nc(C(F)(F)F)c2c(=O)[nH]ncc21 [Compound 193]
18 | ≤ 0.1 | CC(COCCC(=O)N1CCN(c2ncc(C(F)(F)F)cn2)CC1)n1nc(C(F)F)c2c(=O)[nH]ncc21 (centres unmarked) [Compound 435]
19 | ≤ 0.1 | O=C(CCOCCn1c(C(F)(F)F)cc2c(=O)[nH]ncc21)N1CCN(c2ncc(C(F)(F)F)cn2)CC1 [Compound 60, 1-(2-(3-oxo-3-(4-(5-(trifluoromethyl)pyrimidin-2-yl)piperazin-1-yl)propoxy)ethyl)-2-(trifluoromethyl)-1,5-dihydro-4H-pyrrolo[2,3-d]pyridazin-4-one]
20 | ≤ 0.1 | CC(COCCC(=O)N1CCN(c2nc(C#N)cs2)CC1)n1nc(C(F)(F)F)c2c(=O)[nH]ncc21 (centres unmarked) [Compound 251]
21 | 0.1 to 1 | CC(COCC(=O)N1CCN(c2ncc(C(F)(F)F)cn2)CC1)Oc1cccc2c(=O)[nH]ncc12 (racemic) [Compound 33, 5-((1-(2-oxo-2-(4-(5-(trifluoromethyl)pyrimidin-2-yl)piperazin-1-yl)ethoxy)propan-2-yl)oxy)phthalazin-1(2H)-one]
22 | ≤ 0.1 | CC(COCCC(=O)N1CCN(c2ncc(C#N)cn2)CC1)n1cc(C(F)F)c2c(=O)[nH]ncc21 (centres unmarked) [Compound 440]
23 | 0.1 to 1 | O=C(CCOCCc1cccc2c(=O)[nH]ncc12)N1CCC(Oc2ccccc2)CC1 [Compound 197]
24 | ≤ 0.1 | Cc1cn(C(C)COCCC(=O)N2CCN(c3ncc(C(F)(F)F)cn3)CC2)c2cn[nH]c(=O)c12 (centres unmarked) [Compound 152]
25 | ≤ 0.1 | COc1cnc(N2CCN(C(=O)CCOCC(C)n3nc(C(F)(F)F)c4c(=O)[nH]ncc43)CC2)nc1 (single isomer, unassigned) [Compound 332]
26 | ≤ 0.1 | CC(C)(COCCC(=O)N1CCN(c2ncc(C(F)(F)F)cn2)CC1)n1nc(C(F)(F)F)c2c(=O)[nH]ncc21 [Compound 346]
27 | ≤ 0.1 | CC(COCCC(=O)N1CCN(c2ncc(C#N)cn2)CC1)n1nc(C(F)F)c2c(=O)[nH]ncc21 (single isomer, unassigned) [Compound 491]
28 | ≤ 0.1 | CC(COCCC(=O)N1CCN(c2ccc(OC(F)F)cn2)CC1)n1nc(C(F)(F)F)c2c(=O)[nH]ncc21 (centres unmarked) [Compound 275]

Row | IC50 [µM] | SMILES
29 | ≤ 0.1 | CC(COCCC(=O)N1CCN(c2ccc(F)cn2)CC1)n1nc(C(F)(F)F)c2c(=O)[nH]ncc21 (centres unmarked) [Compound 347]
30 | ≤ 0.1 | CC1CN(C(=O)CCOCCN2C(=O)CCc3c2cn[nH]c3=O)CCN1c1ncc(C(F)(F)F)cn1 (centres unmarked) [Compound 308]
31 | ≤ 0.1 | CCC(OCCCC(=O)N1CCN(c2ncc(C(F)(F)F)cn2)CC1)c1cccc2c(=O)[nH]ncc12 (single isomer, unassigned) [Compound 210]
32 | ≤ 0.1 | O=C(CCOCCN1C(=O)CCc2c1cn[nH]c2=O)N1CCN(c2ncc(Cl)cn2)CC1 [Compound 242]
33 | ≤ 0.1 | O=C(CCOCCn1cc(C(F)(F)F)c2c(=O)[nH]ncc21)N1CCN(c2nc3ccccc3o2)CC1 [Compound 379]
34 | ≤ 0.1 | N#Cc1cnc(N2CCN(C(=O)CCOCCc3cccc4c(=O)[nH]ncc34)CC2)nc1 [Compound 102]
35 | 0.1 to 1 | O=C(CCOCCN1CCOc2c1cn[nH]c2=O)N1CCN(c2ncc(C(F)(F)F)cn2)CC1 [Compound 12]
36 | 0.1 to 1 | O=C(CCOCCc1cccc2c(=O)[nH]ncc12)N1CCC(c2ccc(Cl)cn2)CC1 [Compound 118]
37 | ≤ 0.1 | CC(COCCC(=O)N1CCN(c2ccc(C(C)(F)F)cn2)CC1)n1cc(C(F)(F)F)c2c(=O)[nH]ncc21 (centres unmarked) [Compound 483]
38 | 0.1 to 1 | N#Cc1ccc(N2CCN(C(=O)c3cccc(Cn4ccc5c(=O)[nH]ncc54)c3)CC2)nc1 [Compound 9]
39 | 1 to 10 | O=C(NCCCOc1cccc2c(=O)[nH]ncc12)N1CCN(c2ncc(C(F)(F)F)cn2)CC1 [Compound 36]
40 | ≤ 0.1 | CC(OCCCC(=O)N1CCN(c2ncc(C(F)(F)F)cn2)CC1)c1cc(F)cc2c(=O)[nH]ncc12 (single isomer, unassigned) [Compound 130]
41 | ≤ 0.1 | O=C(CCOCCn1nc(C(F)(F)F)c2c(=O)[nH]ncc21)N1CCN(c2ccc(C3COC3)cn2)CC1 [Compound 295]
42 | ≤ 0.1 | CC(COCCC(=O)N1CCN(c2ccc(C3CC3)cn2)CC1)n1nc(C(F)(F)F)c2c(=O)[nH]ncc21 (centres unmarked) [Compound 278]
43 | 1 to 10 | O=C1NCCc2c(Cc3cccc(C(=O)N4CCN(C(=O)C5CC5)CC4)c3)cccc21 [Compound 21]
44 | ≤ 0.1 | CC(COCCC(=O)N1CCN(c2cc(F)c(F)cn2)CC1)n1nc(C(F)(F)F)c2c(=O)[nH]ncc21 (single isomer, unassigned) [Compound 418]
45 | ≤ 0.1 | O=C(CCOCCc1cncc2c(=O)[nH]ncc12)N1CCN(c2ncc(C(F)(F)F)cn2)CC1 [Compound 231]
46 | ≤ 0.1 | CC1CN(c2ncc(C(F)(F)F)cn2)CCN1C(=O)CCOCCn1ncc2c(=O)[nH]ncc21 (centres unmarked) [Compound 142]
47 | 1 to 10 | O=C(CCOCCn1nc(C(F)(F)F)c2c(=O)[nH]ncc21)N1CCN(C2CN(CC(F)(F)F)C2)CC1 [Compound 433]
48 | ≤ 0.1 | CC(COCC(=O)N(C)C1CCN(c2ncc(C(F)(F)F)cn2)CC1)n1nc(C(F)(F)F)c2c(=O)[nH]ncc21 (single isomer, unassigned) [Compound 461, N-methyl-2-(2-(4-oxo-3-(trifluoromethyl)-4,5-dihydro-1H-pyrazolo[3,4-d]pyridazin-1-yl)propoxy)-N-(1-(5-(trifluoromethyl)pyrimidin-2-yl)piperidin-4-yl) acetamide]
49 | ≤ 0.1 | O=C(CCOCCn1cc(C(F)(F)F)c2c(=O)[nH]ncc21)N1CCN(c2nc3ccc(Cl)cc3o2)CC1 [Compound 382]
50 | ≤ 0.1 | COc1cnc(N2CCN(C(=O)CCOCC(C)n3nc(C(F)(F)F)c4c(=O)[nH]ncc43)CC2)nc1 (single isomer, unassigned) [Compound 331]
51 | ≤ 0.1 | CC(COCCC(=O)N1CCN(c2nnc(C(F)(F)F)o2)CC1)n1nc(C(F)(F)F)c2c(=O)[nH]ncc21 (single isomer, unassigned) [Compound 472]
52 | ≤ 0.1 | N#Cc1ccc2oc(N3CCN(C(=O)CCOCCn4nc(C(F)(F)F)c5c(=O)[nH]ncc54)CC3)nc2c1 [Compound 196]
53 | ≤ 0.1 | O=C(CCCOCc1cccc2c(=O)[nH]ncc12)N1CCN(c2ncc(C(F)(F)F)cn2)CC1 [Compound 124]
54 | ≤ 0.1 | CC(COCCC(=O)N1CCN(c2cc(C(F)(F)F)ccn2)CC1)n1nc(C(F)(F)F)c2c(=O)[nH]ncc21 (centres unmarked) [Compound 352]
55 | ≤ 0.1 | O=C(CCOCCn1cc(C(F)(F)F)c2c(=O)[nH]ncc21)N1CCN(c2nc(C(F)(F)F)co2)CC1 [Compound 363]

Row | SMILES | IC50 [µM]
56 | O=C(CCCOC(c1cccc2c(=O)[nH]ncc12)C(F)(F)F)N1CCN(c2ncc(C(F)(F)F)cn2)CC1 (single isomer, unassigned) [Compound 222, 5-(2,2,2-trifluoro-1-(4-oxo-4-(4-(5-(trifluoromethyl)pyrimidin-2-yl)piperazin-1-yl)butoxy)ethyl)phthalazin-1(2H)-one] | 0.1 to 1
